PubChem BioAssay AID1745844 (Carcinogenic Potency Database (CPDB), 2022)
Activity calls are given as the source filed them. The rule behind the calls is not given here.

Tested on: rodent lifetime carcinogenesis bioassay, tumor incidence TD50
Assay: carcinogenic potency in animals, long-term in vivo studies, CPDB compilation (AID 1745844)

Compound `CC(Cl)CCl` (centres undefined) has a TD50 (mouse, strain B6C3F1, females, by gavage, site: any site (literature study), lesion: several types, types named in the paper, dosed 103 weeks, study length 105 weeks) of 341 mg/kg/day, a TD50 (mouse, strain B6C3F1, females, by gavage, site: forestomach, lesion: squamous-cell carcinoma + squamous-cell papilloma, dosed 103 weeks, study length 105 weeks) of 1020 mg/kg/day and a TD50 (mouse, strain B6C3F1, females, by gavage, site: liver, lesion: hepatocellular adenoma + hepatocellular carcinoma + neoplastic nodule, dosed 103 weeks, study length 105 weeks) of 346 mg/kg/day. For the same compound, the TD50 (mouse, strain B6C3F1, females, by gavage, site: liver, lesion: hepatocellular adenoma + hepatocellular carcinoma, dosed 103 weeks, study length 105 weeks) was 346 mg/kg/day, the TD50 (mouse, strain B6C3F1, females, by gavage, site: liver, lesion: hepatocellular adenoma, dosed 103 weeks, study length 105 weeks) was 562 mg/kg/day and the TD50 (mouse, strain B6C3F1, males, by gavage, site: any site (literature study), lesion: several types, types named in the paper, dosed 103 weeks, study length 105 weeks) was 397 mg/kg/day. It also gave a TD50 (mouse, strain B6C3F1, males, by gavage, site: forestomach, lesion: squamous-cell papilloma, dosed 103 weeks, study length 105 weeks) of 1520 mg/kg/day, a TD50 (mouse, strain B6C3F1, males, by gavage, site: liver, lesion: hepatocellular adenoma + hepatocellular carcinoma + neoplastic nodule, dosed 103 weeks, study length 105 weeks) of 229 mg/kg/day and a TD50 (mouse, strain B6C3F1, males, by gavage, site: liver, lesion: hepatocellular adenoma + hepatocellular carcinoma, dosed 103 weeks, study length 105 weeks) of 229 mg/kg/day. The TD50 (mouse, strain B6C3F1, males, by gavage, site: liver, lesion: hepatocellular adenoma, dosed 103 weeks, study length 105 weeks) was 384 mg/kg/day, the TD50 (mouse, strain B6C3F1, males, by gavage, site: lung, lesion: alveolar/bronchiolar adenoma + alveolar/bronchiolar carcinoma, dosed 103 weeks, study length 105 weeks) was 5070 mg/kg/day and the TD50 (rat, strain Fischer 344, females, by gavage, site: any site (literature study), lesion: several types, types named in the paper, dosed 103 weeks, study length 105 weeks) was 240 mg/kg/day. For the same compound, the TD50 (rat, strain Fischer 344, females, by gavage, site: mammary gland, lesion: adenocarcinoma, NOS, dosed 103 weeks, study length 105 weeks) was 767 mg/kg/day, the TD50 (rat, strain Fischer 344, males, by gavage, site: any site (literature study), lesion: several types, types named in the paper, dosed 103 weeks, study length 106 weeks) was 69.7 mg/kg/day (inactive) and the TD50 (rat, strain Fischer 344, males, by gavage, site: liver, lesion: hepatocellular adenoma + hepatocellular carcinoma + neoplastic nodule, dosed 103 weeks, study length 106 weeks) was 2570 mg/kg/day.

Work on `O=NN(CCO)C(=O)NCCCl` yielded a TD50 (rat, strain Fischer 344, females, by gavage, site: all sites, lesion: mononuclear-cell leukemia, dosed 40 weeks, study length 115 weeks) of 0.76 mg/kg/day, a TD50 (rat, strain Fischer 344, females, by gavage, site: kidney tubule, lesion: several types, types named in the paper, dosed 40 weeks, study length 115 weeks) of 4.38 mg/kg/day and a TD50 (rat, strain Fischer 344, females, by gavage, site: liver, lesion: cholangiocarcinoma, dosed 40 weeks, study length 115 weeks) of 4.38 mg/kg/day. The TD50 (rat, strain Fischer 344, females, by gavage, site: liver, lesion: hepatocellular carcinoma, dosed 40 weeks, study length 115 weeks) was 0.653 mg/kg/day, the TD50 (rat, strain Fischer 344, females, by gavage, site: liver, lesion: neoplastic nodule, dosed 40 weeks, study length 115 weeks) was 0.564 mg/kg/day and the TD50 (rat, strain Fischer 344, females, by gavage, site: liver, lesion: several types, types named in the paper, dosed 40 weeks, study length 115 weeks) was 0.488 mg/kg/day. For the same compound, the TD50 (rat, strain Fischer 344, females, in drinking water, site: liver, lesion: one or several types, types not named, dosed 30 weeks, study length 104 weeks) was 1.19 mg/kg/day, the TD50 (rat, strain Fischer 344, females, in drinking water, site: uterus, lesion: one or several types, types not named, dosed 30 weeks, study length 104 weeks) was 0.669 mg/kg/day and the TD50 (rat, strain Fischer 344, males, by gavage, site: kidney tubule, lesion: several types, types named in the paper, dosed 35 weeks, study length 120 weeks) was 0.663 mg/kg/day. It also gave a TD50 (rat, strain Fischer 344, males, by gavage, site: liver, lesion: cholangiocarcinoma, dosed 35 weeks, study length 120 weeks) of 0.926 mg/kg/day, a TD50 (rat, strain Fischer 344, males, by gavage, site: liver, lesion: hepatocellular carcinoma, dosed 35 weeks, study length 120 weeks) of 0.233 mg/kg/day and a TD50 (rat, strain Fischer 344, males, by gavage, site: liver, lesion: neoplastic nodule, dosed 35 weeks, study length 120 weeks) of 1.19 mg/kg/day. It also gave a TD50 (rat, strain Fischer 344, males, by gavage, site: liver, lesion: several types, types named in the paper, dosed 35 weeks, study length 120 weeks) of 0.15 mg/kg/day and a TD50 (rat, strain Fischer 344, males, in drinking water, site: liver, lesion: one or several types, types not named, dosed 30 weeks, study length 104 weeks) of 0.59 mg/kg/day.

Work on `CCN(C)N=O` yielded a TD50 (rat, strain Fischer 344, females, in drinking water, site: all sites, lesion: one or several types, types not named, dosed 30 weeks, study length 115 weeks) of 0.0386 mg/kg/day, a TD50 (rat, strain Fischer 344, males, by gavage, site: liver, lesion: hemangiosarcoma, dosed 30 weeks, study length 55 weeks) of 0.12 mg/kg/day and a TD50 (rat, strain Fischer 344, males, by gavage, site: liver, lesion: hepatocellular tumor, benign, dosed 30 weeks, study length 55 weeks) of 0.0503 mg/kg/day. It also gave a TD50 (rat, strain Fischer 344, males, by gavage, site: liver, lesion: several types, types named in the paper, dosed 30 weeks, study length 55 weeks) of 0.0503 mg/kg/day, a TD50 (rat, strain Fischer 344, males, by gavage, site: lung, lesion: alveolar/bronchiolar adenoma, dosed 30 weeks, study length 55 weeks) of 0.242 mg/kg/day and a TD50 (rat, strain Fischer 344, males, by gavage, site: nasal mucosa, lesion: one or several types, types not named, dosed 30 weeks, study length 55 weeks) of 0.201 mg/kg/day.

Work on `O=C1c2cccc(O)c2C(=O)c2c(O)cccc21` yielded a TD50 (mouse, strain C3H/HeN, males, in feed, site: liver, lesion: hepatocellular adenoma, dosed 77 weeks, study length 77 weeks) of 201 mg/kg/day, a TD50 (mouse, strain C3H/HeN, males, in feed, site: liver, lesion: hepatocellular carcinoma, dosed 77 weeks, study length 77 weeks) of 336 mg/kg/day and a TD50 (mouse, strain C3H/HeN, males, in feed, site: liver, lesion: several types, types named in the paper, dosed 77 weeks, study length 77 weeks) of 201 mg/kg/day. It also gave a TD50 (rat, strain ACI, males, in feed, site: large intestine, lesion: several types, types named in the paper, dosed 69 weeks, study length 69 weeks) of 245 mg/kg/day.
